A short description of the series: recombinant UMI read abundance after kanamycin selection (control-corrected) (log10(CPM+1)); higher = more efficient recombination; extreme values may be limits of the assay; sequences stand for … in AGTGCAGAGAAAATCGGCCAGTTTTCTCTGCCTGCAGTCCGCATGCCGTGGGACCCCTTGGGTTCTAACCTGTTGCCTAGATTTATGCAGCGGACTGCCTTTCTCCCAAAGTGATAAACCGG…AGGTTGGTTTCACT; site = the 11-nt donor. The gist of the method:
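After plating on IPTG (0.07 mM) plus kanamycin, or unselected, in two replicates, recombinant UMIs were PCR-amplified across the donor–target junction and sequenced. The cells were Escherichia coli co-electroporated with a UMI-tagged donor and donor-binding-loop pair library and a target plasmid with a fixed target and T7-inducible IS621 bridge recombinase. Values are log10(CPM+1), with CPM averaged over replicates and scaled by control-derived factors.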
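Also: IS621 bridge recombinase in Escherichia coli cells against a fixed T5 target plasmid.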

On to “AGGGAGACATGGACCGGTTTTCCCGGTAATCCGTATTTGCA (site AGGCAGACTTG)”, for which the “recombinant UMI read abundance (log10)” value was found to be 0.473.

Consider “AGGGAGACATGGACCGGTTTTCCCGGTAATCCGTATTTGCA (site AGGGAGACTTG)”, for which the “recombinant UMI read abundance (log10)” value is 2.5.

As for “AGGGAGACATGGACCGGTTTTCCCGGTAATCCGTATTTGCA (site AGGTAGACTTG)”, the “recombinant UMI read abundance (log10)” value is 0.162.

As for “AGGGATCCATGGACCGGTTTTCCCGGTAATCCGTATTTGTT (site AGGGATCCTAA)”, the “recombinant UMI read abundance (log10)” value was 0.662.

With “AGGGATCCATGGACCGGTTTTCCCGGTAATCCGTATTTGTT (site CGGAATCCTAA)”, the “recombinant UMI read abundance (log10)” value amounted to 0.

For the sequence “AGGGCTACATGGACCGGTTTTCCCGGTAATCCGTATTTGCG (site AGGGCTACTCG)”, the “recombinant UMI read abundance (log10)” value turned out to be 1.42.

“AGGGTGACATGGACCGGTTTTCCCGGTAATCCGTATTTGCA (site AGGAAGACTTG)”: the “recombinant UMI read abundance (log10)” value was 0.666.

Take “AGGGTGACATGGACCGGTTTTCCCGGTAATCCGTATTTGCA (site AGGGTGACTTG)”: the “recombinant UMI read abundance (log10)” value turned out to be 2.63.

“AGGTACCCATGGACCGGTTTTCCCGGTAATCCGTATTTGTG (site AGGTACCCTCA)”: the “recombinant UMI read abundance (log10)” value stood at 0.0796.

As for “AGGTACCCATGGACCGGTTTTCCCGGTAATCCGTATTTGTG (site AGGTCCCCTCA)”, the “recombinant UMI read abundance (log10)” value was 0.0158.

On to “AGGTACCCATGGACCGGTTTTCCCGGTAATCCGTATTTGTG (site AGGTGCCCTCA)”, for which the “recombinant UMI read abundance (log10)” value stood at 0.0127.

“AGGTACCCATGGACCGGTTTTCCCGGTAATCCGTATTTGTG (site AGGTTCCCTCA)”: the “recombinant UMI read abundance (log10)” value was 0.0248.

On to “AGGTACGCATGGACCGGTTTTCCCGGTAATCCGTATTTGAG (site AGGTACGCTCT)”, for which the “recombinant UMI read abundance (log10)” value came out at 1.72.

For “AGGTAGACATGGACCGGTTTTCCCGGTAATCCGTATTTGCA (site AGGAAGACTTG)”, the “recombinant UMI read abundance (log10)” value came to 1.23.

As to “AGGTAGACATGGACCGGTTTTCCCGGTAATCCGTATTTGCA (site AGGCAGACTTG)”, the “recombinant UMI read abundance (log10)” value came out at 2.47.

“AGGTAGACATGGACCGGTTTTCCCGGTAATCCGTATTTGCA (site AGGGAGACTTG)”: the “recombinant UMI read abundance (log10)” value came out at 0.688.

In the case of “AGGTAGACATGGACCGGTTTTCCCGGTAATCCGTATTTGCA (site AGGTAGACTTG)”, the “recombinant UMI read abundance (log10)” value was determined as 2.88.

Take “AGGTAGCCATGGACCGGTTTTCCCGGTAATCCGTATTTGCA (site AGGAAGACTTG)”: the “recombinant UMI read abundance (log10)” value was 0.

For the sequence “AGGTAGCCATGGACCGGTTTTCCCGGTAATCCGTATTTGCA (site AGGTAGCCTTG)”, the “recombinant UMI read abundance (log10)” value was determined as 0.

On to “AGGTAGCCATGGACCGGTTTTCCCGGTAATCCGTATTTGTA (site AGGTAGCCTTA)”, for which the “recombinant UMI read abundance (log10)” value came out at 0.215.

On to “AGGTAGGCATGGACCGGTTTTCCCGGTAATCCGTATTTGGC (site AAGTAGGCTGC)”, for which the “recombinant UMI read abundance (log10)” value was 0.588.

As to “AGGTAGGCATGGACCGGTTTTCCCGGTAATCCGTATTTGGC (site ACGTAGGCTGC)”, the “recombinant UMI read abundance (log10)” value was 1.87.

As for “AGGTAGGCATGGACCGGTTTTCCCGGTAATCCGTATTTGGC (site AGGTAGGCTGC)”, the “recombinant UMI read abundance (log10)” value worked out at 2.65.

Consider “AGGTAGGCATGGACCGGTTTTCCCGGTAATCCGTATTTGGC (site ATGTAGGCTGC)”, for which the “recombinant UMI read abundance (log10)” value is 0.775.

“AGGTGCGCATGGACCGGTTTTCCCGGTAATCCGTATTTGTA (site AGGTGCGCTTA)”: the “recombinant UMI read abundance (log10)” value turned out to be 1.81.

On to “AGGTGGACATGGACCGGTTTTCCCGGTAATCCGTATTTGCA (site AGGAAGACTTG)”, for which the “recombinant UMI read abundance (log10)” value was determined as 1.46.

With “AGGTGGACATGGACCGGTTTTCCCGGTAATCCGTATTTGCA (site AGGTGGACTTG)”, the “recombinant UMI read abundance (log10)” value came to 2.73.

For the sequence “AGGTGGACATGGACCGGTTTTCCCGGTAATCCGTATTTGTA (site AGGTGGACTTA)”, the “recombinant UMI read abundance (log10)” value was found to be 2.2.

As to “AGGTGGCCATGGACCGGTTTTCCCGGTAATCCGTATTTGCC (site AGGTGGCCTGG)”, the “recombinant UMI read abundance (log10)” value was found to be 0.

The record behind these values is the supplement of paper PMC11208160.
